Consider one substance from US20090324682A1 (priority 2004, published 2009).

One data set relates to prostate tumours. Conditions: maximum non-lethal systemic dose, cited from earlier work.
The subject of data set [1] is Human smooth muscle cells (SMC). Put plainly: Proliferation of human smooth muscle cell cultures treated with rhodamine 123 and/or FDG. In kind it is cell-based. The protocol:
Human smooth muscle cells (SMC) were treated with rhodamine 123 and/or with FDG.
Three levels of Rhodamine 123 concentration were used first: 0.05, 1 and 2.5 mg/ml.
A combined composition of FDG and Rhodamine at various dosages were evaluated on the same human SMC cultures. The doses (FDG/rhodamine in mg/ml) were as follows: […]

Data set [2] can be described thus: Maximal tolerated dose of Rhodamine 123 delivered intra-venously in man. Conditions: 70 kg patient. Format: in vivo. As for the experimental part: Because inhibitors of oxidative phorphorylation are extremely toxic to a subject in the doses needed for efficacy via the systemic route, such inhibitors have been largely overlooked for effective treatment of conditions such as cancer. […] It is also known that the maximal tolerated dose of Rhodamine 123 delivered intra-venously in man is 95 mg/m^2. For a 70 kg patient, the maximum dose of systemically delivered rhodamine is about 150 mg. […] There was an accumulation of rhodamine in the prostate of the patients, but it was not sufficient to provoke a significant response.

rhodamine 123: the “effect on prostate tumours” value in the data set on prostate tumours is reported as “no useful effect”. In addition, the “rhodamine in the prostate of the patients” value with prostate tumours (not sufficient to provoke a significant response) was “accumulation”. The “concentration enough to stop smooth muscle cell proliferation” value in data set [1] came out at 5 µg/mL. Further, the “proliferation rates of SMC compared to non rhodamine treated cells” value in data set [1] (Rhodamine 123 0.05 mg/ml) is given as 90+21.6%; in data set [1] (Rhodamine 123 1 mg/ml), 51.2 ± 10.7%; in data set [1] (Rhodamine 123 2.5 mg/ml) it was 7.3 ± 5.1%. In addition, the SMC proliferation entry in data set [1] (higher rhodamine concentrations (above 2.5 mg/ml)) is reported as “totally suppressed”. Besides, in data set [2], the “maximum dose of systemically delivered rhodamine” value was “about 150 mg”.
